# Measurements from patent publication US10370373B2, “Antitumor derivatives for differentiation therapy” (THE CLEVELAND CLINIC FOUNDATION, priority 2016, dated 2019).
# Legend:
# Format in all cases: cell-based
# THP1 AML cells [1] = assay: cell number / growth of THP1 AML cells; details: derivatives at 1 mM vs ED2 at 10 μM
# Description: (§1) E) Elevation of differentiation markers CD11b and CD14. […] G) Upregulation of p27 (CDKN1B) (ED3 lysates were unavailable).
# THP-1 cells = assay: Annexin-PI flow cytometry for apoptosis; details: 5 days after treatment
# Procedure: (§2) (A) CD11b flow cytometry was performed on THP-1 cells 5 days after the indicated treatments. (B) Annexin-PI flow cytometry of the same cells to determine the percent of cells that were undergoing apoptosis after treatments with the different compounds. Camptothecin is a positive apoptosis inducer.
# THP1 AML cells [2] = assay: CD11b / CD14 differentiation marker flow cytometry; details: THP-1 cells, 5 days after treatment
# Procedure: as §1, §2
# [3] = cell viability (zolpidem)
SMILES,growth inhibitory activity against THP-1 cells versus ED2 (THP1 AML cells [1]),activation of apoptosis pathway (Annexin-PI) (THP-1 cells),differentiation induction via CD11b flow cytometry versus decitabine and ED2 (THP1 AML cells [2]),cell viability [3]
"CCCCSc1ccc2nc(-c3ccc(OCCCN)cc3)cn2c1 [NH2, 3-(4-(6-(butylthio)imidazo[1,2-a]pyridin-2-yl)phenoxy)propan-1-amine]",more potent growth inhibitory activity,do not activate the apoptosis pathway,better differentiation inducers than decitabine (DAC) and ED2,
O=C(O)CCCC[C@@H]1SC[C@@H]2NC(=O)N[C@@H]21 [biotin],more potent growth inhibitory activity,do not activate the apoptosis pathway,better differentiation inducers than decitabine (DAC) and ED2,
Cc1ccc(-c2nc3ccc(C)cn3c2CC(=O)N(C)C)cc1 [zolpidem],,,,does not affect cell viability
